Legend:
Type in all cases: in vivo
[1] = system: Sphaerotheca fuliginea; experiment: Test of examining control effect on Sphaerotheca fuliginea (potted cucumber plants); details: Podosphaera fuliginea, 336 h; 10% wettable powder adjusted to 125 ppm, 15 ml/pot sprayed on potted cucumber plants one day before spray inoculation; assessed after 14 days in greenhouse; read-out: Determination of control effect (preventive value) on Sphaerotheca fuliginea
Summary of the method: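 Cucumber plants (Sagamihanjiro, 2nd leaf stage) sprayed with 125 ppm compound (from 10% wettable powder), inoculated one day later with S. fuliginea conidia (1.0×10^5 cells/ml); lesion area scored after 14 days in greenhouse. Preventive value vs untreated; ≥60% high, <60% low control.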

[2] = system: Pseudoperonospora cubensis; experiment: Test of examining control effect on Pseudoperonospora cubensis (potted cucumber plants); details: 96 h, 10% wettable powder adjusted to 125 ppm, 15 ml/pot sprayed on potted cucumber plants one day before spray inoculation, assessed after 1 day wet chamber and 3 days greenhouse, read-out: Determination of control effect (preventive value) on Pseudoperonospora cubensis
Summary of the method: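 Cucumber plants (Sagamihanjiro, 2.5-leaf stage) sprayed with 125 ppm compound solution from 10% wettable powder, 15 ml/pot. One day later, spray-inoculated with P. cubensis conidia (1.0×10^4 cells/ml), kept 1 day at 21° C wet, then 3 days in greenhouse. Preventive value derived from lesion area relative to untreated plants.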

[3] = system: Phytophthora infestans; experiment: whole plant or invertebrate; details: in Solanum lycopersicum, 96 h, read-out: Determination of control effect (preventive value)

Structure (SMILES)	pest or weed control at 125 µg/mL [1]	pest or weed control at 125 µg/mL [2]	pest or weed control at 125 ppm [3]
C(#Cc1csc(Oc2ccccc2)n1)CCNc1ncnc2sccc12 [compound 83, 4-[4-(2-Phenoxythiazol-4-yl)-3-butynylamino]thieno[2,3-d]pyrimidine]	60 to 100%	60 to 100%	0 to 60%
COc1ccccc1C#CCC(C)Nc1ncnc2sccc12 (stereo not drawn) [compound 236]	60 to 100%	60 to 100%	0 to 60%
C(#Cc1csc(Oc2ccccc2)n1)CCNc1ncnc2ccccc12 [compound 227]	60 to 100%	60 to 100%	60 to 100%
CC(CC#Cc1ccc(Cl)cc1C(F)(F)F)Nc1ncnc2c(C(F)(F)F)cccc12 (stereo not drawn) [compound 351]	60 to 100%	60 to 100%	0 to 60%
Clc1cc(C#CCCNc2ncnc3ccccc23)ccn1 [compound 196]	60 to 100%	60 to 100%	0 to 60%
C(#Cc1ccsc1)CCNc1ncnc2ccccc12 [compound 205]	60 to 100%	60 to 100%	60 to 100%
COC(=O)c1ccc(C#CCCNc2ncnc3sccc23)cc1 [compound 31]	0 to 60%	60 to 100%	0 to 60%
COc1nc(C#CCCNc2ncnc3ccccc23)cs1 [compound 212]	60 to 100%	60 to 100%	60 to 100%
Cc1ccsc1C#CCCNc1ncnc2ccccc12 [compound 208]	60 to 100%	60 to 100%	60 to 100%
Clc1ncnc(NCCC#Cc2ccccc2)c1-c1ccccc1 [compound 373]	0 to 60%	0 to 60%	0 to 60%
COCc1ccccc1C#CCCNc1ncnc2cc(F)ccc12 [compound 316]	60 to 100%	60 to 100%	60 to 100%
Fc1ccc(C#CCCNc2ncnc3ccccc23)cn1 [compound 194]	60 to 100%	60 to 100%	0 to 60%
C=Cc1ccc(C#CCCNc2ncnc3ccccc23)cc1 [compound 110]	60 to 100%	60 to 100%	60 to 100%
CC(CC#Cc1ccccc1S(C)(=O)=O)Nc1ncnc2ccccc12 (stereo not drawn) [compound 290]	60 to 100%	60 to 100%	60 to 100%
CC(CC#Cc1ccccc1)Nc1ncnc2ccccc12 (stereo not drawn) [compound 270]	60 to 100%	60 to 100%	0 to 60%
CC(CC#Cc1csc(Oc2ccccc2)n1)Nc1ncnc2ccccc12 (stereo not drawn) [compound 293]	60 to 100%	60 to 100%	60 to 100%
O=C(O)c1ccc(C#CCCNc2ncnc3ccccc23)cc1 [compound 127]	60 to 100%	60 to 100%	60 to 100%
COCc1ccccc1C#CCC(C)Nc1ncnc2ccccc12 (stereo not drawn) [compound 278]	60 to 100%	60 to 100%	60 to 100%
COCc1ccccc1C#CCCNc1ncnc2c(Cl)cccc12 [compound 311]	60 to 100%	60 to 100%	60 to 100%
COc1ccc(C#CCCNc2ncnc3sccc23)cc1 [compound 23]	60 to 100%	60 to 100%	60 to 100%
CC(CC#Cc1ccc(Cl)cc1)Nc1ncnc2ccccc12 (stereo not drawn) [compound 273]	60 to 100%	60 to 100%	60 to 100%
COCc1ccccc1C#CCCNc1ncnc2ncccc12 [compound 380]	60 to 100%	60 to 100%	60 to 100%
COCc1nc(C#CCCNc2ncnc3sccc23)cs1 [compound 72]	60 to 100%	60 to 100%	60 to 100%
CC(CC#Cc1ccc(Cl)c(C(F)(F)F)c1)Nc1ncnc2ccccc12 (stereo not drawn) [compound 284]	60 to 100%	60 to 100%	0 to 60%
CC(CC#Cc1ccc(Cl)cc1C(F)(F)F)Nc1ncnc2cccc(F)c12 (stereo not drawn) [compound 346]	60 to 100%	60 to 100%	0 to 60%

Structure (SMILES)	pest or weed control at 125 µg/mL [1]	pest or weed control at 125 µg/mL [2]	pest or weed control at 125 ppm [3]
C(#Cc1ccccc1C1OCCO1)CCNc1ncnc2ccccc12 [compound 155]	0 to 60%	60 to 100%	0 to 60%
CN(C)S(=O)(=O)c1ccc(C#CCCNc2ncnc3ccccc23)cc1 [compound 122]	0 to 60%	60 to 100%	0 to 60%
C(#Cc1ncccn1)CCNc1ncnc2sccc12 [compound 58]	0 to 60%	60 to 100%	60 to 100%
COCc1ccccc1C#CCCNc1ncnc2cc(Br)ccc12 [compound 320]	60 to 100%	60 to 100%	0 to 60%
C(#CCc1ccccc1)CCNc1ncnc2sccc12 [compound 9]	60 to 100%	60 to 100%	0 to 60%
COCc1ccccc1C#CCCNc1ncnc(Cl)c1C [compound 363]	60 to 100%	60 to 100%	60 to 100%
COCc1ccccc1C#CCCNc1ncnc2ccc(Br)cc12 [compound 321]	60 to 100%	60 to 100%	0 to 60%
N#CCc1ccccc1C#CCCNc1ncnc2ccccc12 [compound 147]	60 to 100%	60 to 100%	60 to 100%
OCC(CC#Cc1ccccc1)Nc1ncnc2ccccc12 (stereo not drawn) [compound 299]	0 to 60%	60 to 100%	60 to 100%
CC(CC#Cc1ccc(C(F)(F)F)cc1)Nc1ncnc2ccccc12 (stereo not drawn) [compound 275]	60 to 100%	60 to 100%	60 to 100%
CC(C)Oc1ccccc1C#CCCNc1ncnc2ccccc12 [compound 119]	60 to 100%	60 to 100%	60 to 100%
Fc1ccc(C#CCCNc2ncnc3ccccc23)c(C(F)(F)F)c1 [compound 169]	60 to 100%	60 to 100%	60 to 100%
CS(=O)(=O)Nc1ccc(C#CCCNc2ncnc3ccccc23)cc1 [compound 123]	0 to 60%	60 to 100%	0 to 60%
FC(F)(F)c1ccccc1C#CCCNc1ncnc2c(Cl)cccc12 [compound 307]	60 to 100%	60 to 100%	0 to 60%
Ic1ccc(C#CCCNc2ncnc3ccccc23)cc1 [compound 98]	60 to 100%	60 to 100%	0 to 60%
Cc1ccc(Oc2ccc(C#CCCNc3ncnc4ccccc34)cc2)cc1 [compound 186]	60 to 100%	0 to 60%	0 to 60%
Nc1c(Cl)ncnc1NCCC#Cc1ccccc1C(F)(F)F [compound 368]	60 to 100%	60 to 100%	0 to 60%
FC(F)(F)c1ccccc1C#CCCNc1ncnc2sccc12 [compound 25]	60 to 100%	60 to 100%	60 to 100%
C(#Cc1ccc2ncccc2c1)CCNc1ncnc2ccccc12 [compound 190]	0 to 60%	60 to 100%	0 to 60%
OCCc1ccccc1C#CCCNc1ncnc2ccccc12 [compound 158]	60 to 100%	60 to 100%	0 to 60%
COc1ccccc1Oc1nc(C#CCCNc2ncnc3ccccc23)cs1 [compound 215]	60 to 100%	60 to 100%	60 to 100%
CC(CC#Cc1ccc(Cl)cc1C(F)(F)F)Nc1ncnc2cc(F)ccc12 (stereo not drawn) [compound 344]	60 to 100%	60 to 100%	0 to 60%
COCc1ccccc1C#CCCNc1ncnc2ccc(OC)cc12 [compound 329]	60 to 100%	60 to 100%	60 to 100%
COCc1ccccc1C#CCCNc1ncnc2ccc(Cl)cc12 [compound 313]	60 to 100%	60 to 100%	0 to 60%
FCc1nc(C#CCCNc2ncnc3sccc23)cs1 [compound 68]	60 to 100%	60 to 100%	60 to 100%
